Test results published in PubChem BioAssay (NCI).
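GI50 marks 50% less growth. At the TGI there is no net growth.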

What was measured:
Assay in all cases: DTP human tumour cell line panel, 384-well format
OVCAR-4 ovarian = system: OVCAR-4 ovarian
MDA-MB-435 melanoma = system: MDA-MB-435 melanoma
EKVX NSCLC = system: EKVX NSCLC
SF-268 CNS = system: SF-268 CNS
MCF7 breast = system: MCF7 breast
SR leukemia = system: SR leukemia
SK-OV-3 ovarian = system: SK-OV-3 ovarian
BT-549 breast = system: BT-549 breast
NCI-H23 lung = system: NCI-H23 lung
IGROV1 ovarian = system: IGROV1 ovarian
OVCAR-8 ovarian = system: OVCAR-8 ovarian
SNB-19 CNS = system: SNB-19 CNS
DU-145 prostate = system: DU-145 prostate
SK-MEL-28 melanoma = system: SK-MEL-28 melanoma
A498 renal = system: A498 renal
SNB-75 CNS = system: SNB-75 CNS
OVCAR-3 ovarian = system: OVCAR-3 ovarian
LOX IMVI melanoma = system: LOX IMVI melanoma
T-47D breast = system: T-47D breast
CAKI-1 renal = system: CAKI-1 renal
COLO 205 colon = system: COLO 205 colon
ACHN renal = system: ACHN renal
HT29 colon = system: HT29 colon
RXF 393 renal = system: RXF 393 renal
NCI/ADR-RES ovarian = system: NCI/ADR-RES ovarian
HOP-92 NSCLC = system: HOP-92 NSCLC
SF-295 CNS = system: SF-295 CNS
NCI-H322M lung = system: NCI-H322M lung
TK-10 renal = system: TK-10 renal
UACC-62 melanoma = system: UACC-62 melanoma
PC-3 prostate = system: PC-3 prostate
NCI-H226 lung = system: NCI-H226 lung
RPMI-8226 leukemia = system: RPMI-8226 leukemia
KM12 colon = system: KM12 colon
SN12C renal = system: SN12C renal
UACC-257 melanoma = system: UACC-257 melanoma
U251 glioblastoma = system: U251 glioblastoma
MDA-MB-231 breast = system: MDA-MB-231 breast
SF-539 CNS = system: SF-539 CNS
OVCAR-5 ovarian = system: OVCAR-5 ovarian
HL-60(TB) leukemia = system: HL-60(TB) leukemia
A549 NSCLC = system: A549 NSCLC
MOLT-4 leukemia = system: MOLT-4 leukemia
NCI-H460 NSCLC = system: NCI-H460 NSCLC
HOP-62 NSCLC = system: HOP-62 NSCLC
MDA-MB-468 breast = system: MDA-MB-468 breast
HCT-15 colon = system: HCT-15 colon
HCC-2998 colon = system: HCC-2998 colon
HCT-116 colon = system: HCT-116 colon
HS 578T breast = system: HS 578T breast
NCI-H522 lung = system: NCI-H522 lung
SK-MEL-5 melanoma = system: SK-MEL-5 melanoma
M14 melanoma = system: M14 melanoma
MALME-3M melanoma = system: MALME-3M melanoma

Structure (SMILES): CC(C)(C)Cn1c(N)nc2ccc(-c3[nH]c(C(C)(C)C)nc3-c3ccc(F)cc3)nc21
- GI50 (OVCAR-4 ovarian): 7.46 µM
- TGI (OVCAR-4 ovarian): 20.3 µM
- GI50 (MDA-MB-435 melanoma): 13.4 µM
- TGI (MDA-MB-435 melanoma): 26.3 µM
- GI50 (EKVX NSCLC): 2.74 µM
- TGI (EKVX NSCLC): 15.4 µM
- GI50 (SF-268 CNS): 11.8 µM
- TGI (SF-268 CNS): 24.3 µM
- GI50 (MCF7 breast): 6.64 µM
- TGI (MCF7 breast): 19.3 µM
- GI50 (SR leukemia): 2.63 µM
- TGI (SR leukemia): 13.5 µM
- GI50 (SK-OV-3 ovarian): 8.25 µM
- TGI (SK-OV-3 ovarian): 21 µM
- GI50 (BT-549 breast): 12 µM
- TGI (BT-549 breast): 24.5 µM
- GI50 (NCI-H23 lung): 11.5 µM
- TGI (NCI-H23 lung): 23.9 µM
- GI50 (IGROV1 ovarian): 2.57 µM
- TGI (IGROV1 ovarian): 12.4 µM
- GI50 (OVCAR-8 ovarian): 9.78 µM
- TGI (OVCAR-8 ovarian): 21.8 µM
- GI50 (SNB-19 CNS): 11.9 µM
- TGI (SNB-19 CNS): 24.3 µM
- GI50 (DU-145 prostate): 9.61 µM
- TGI (DU-145 prostate): 21.6 µM
- GI50 (SK-MEL-28 melanoma): 12.6 µM
- TGI (SK-MEL-28 melanoma): 25.3 µM
- GI50 (A498 renal): 4.54 µM
- TGI (A498 renal): 18.6 µM
- GI50 (SNB-75 CNS): 13.5 µM
- TGI (SNB-75 CNS): 26.5 µM
- GI50 (OVCAR-3 ovarian): 9.69 µM
- TGI (OVCAR-3 ovarian): 21.5 µM
- GI50 (LOX IMVI melanoma): 13.5 µM
- TGI (LOX IMVI melanoma): 26.3 µM
- GI50 (T-47D breast): 9.88 µM
- TGI (T-47D breast): 21.6 µM
- GI50 (CAKI-1 renal): 6.13 µM
- TGI (CAKI-1 renal): 19.9 µM
- GI50 (COLO 205 colon): 16 µM
- TGI (COLO 205 colon): 29.5 µM
- GI50 (ACHN renal): 1.9 µM
- TGI (ACHN renal): 12.3 µM
- GI50 (HT29 colon): 2.33 µM
- TGI (HT29 colon): 6.39 µM
- GI50 (RXF 393 renal): 12.9 µM
- TGI (RXF 393 renal): 25.6 µM
- GI50 (NCI/ADR-RES ovarian): 3.76 µM
- TGI (NCI/ADR-RES ovarian): 17.4 µM
- GI50 (HOP-92 NSCLC): 10.2 µM
- TGI (HOP-92 NSCLC): 22 µM
- GI50 (SF-295 CNS): 10.6 µM
- TGI (SF-295 CNS): 22.6 µM
- GI50 (NCI-H322M lung): 4.97 µM
- TGI (NCI-H322M lung): 17.7 µM
- GI50 (TK-10 renal): 3.02 µM
- TGI (TK-10 renal): 14.6 µM
- GI50 (UACC-62 melanoma): 10.7 µM
- TGI (UACC-62 melanoma): 22.7 µM
- GI50 (PC-3 prostate): 10.2 µM
- TGI (PC-3 prostate): 22.1 µM
- GI50 (NCI-H226 lung): 13.1 µM
- TGI (NCI-H226 lung): 25.8 µM
- GI50 (RPMI-8226 leukemia): 2 µM
- TGI (RPMI-8226 leukemia): 5.4 µM
- GI50 (KM12 colon): 5.24 µM
- TGI (KM12 colon): 17.4 µM
- GI50 (SN12C renal): 1.8 µM
- TGI (SN12C renal): 14.7 µM
- GI50 (UACC-257 melanoma): 2.92 µM
- TGI (UACC-257 melanoma): 7.71 µM
- GI50 (U251 glioblastoma): 6.13 µM
- TGI (U251 glioblastoma): 18.6 µM
- GI50 (MDA-MB-231 breast): 11.7 µM
- TGI (MDA-MB-231 breast): 24.1 µM
- GI50 (SF-539 CNS): 11.9 µM
- TGI (SF-539 CNS): 24.4 µM
- GI50 (OVCAR-5 ovarian): 3.37 µM
- TGI (OVCAR-5 ovarian): 13 µM
- GI50 (HL-60(TB) leukemia): 3.78 µM
- TGI (HL-60(TB) leukemia): 10.4 µM
- GI50 (A549 NSCLC): 9.53 µM
- TGI (A549 NSCLC): 21.7 µM
- GI50 (MOLT-4 leukemia): 7.35 µM
- TGI (MOLT-4 leukemia): 19.5 µM
- GI50 (NCI-H460 NSCLC): 4.3 µM
- TGI (NCI-H460 NSCLC): 16.2 µM
- GI50 (HOP-62 NSCLC): 11.4 µM
- TGI (HOP-62 NSCLC): 23.7 µM
- GI50 (MDA-MB-468 breast): 2.93 µM
- TGI (MDA-MB-468 breast): 15.5 µM
- GI50 (HCT-15 colon): 2.16 µM
- TGI (HCT-15 colon): 4.75 µM
- GI50 (HCC-2998 colon): 3.6 µM
- TGI (HCC-2998 colon): 14.4 µM
- GI50 (HCT-116 colon): 6.38 µM
- TGI (HCT-116 colon): 18.9 µM
- GI50 (HS 578T breast): 11.4 µM
- TGI (HS 578T breast): 23.6 µM
- GI50 (NCI-H522 lung): 5.97 µM
- TGI (NCI-H522 lung): 18.9 µM
- GI50 (SK-MEL-5 melanoma): 3.7 µM
- TGI (SK-MEL-5 melanoma): 15.7 µM
- GI50 (M14 melanoma): 12.9 µM
- TGI (M14 melanoma): 25.6 µM
- GI50 (MALME-3M melanoma): 4.26 µM
- TGI (MALME-3M melanoma): 16.7 µM
